Values after ≈ are worked out from the molar mass of the structure shown. “Also recorded” adds a separate entry of the source.
Legend:
[1] = Solubility in water (18 h stirring, filtration, HPLC); details: for solubility at 18 h: water
Description: 10 mg of each of paclitaxel, 7-GAG-PT, 7-MAG-PT, 10-GAG-DT (α-anomer), 10-GAG-DT (β-anomer) and 10-MAG-DT (α-anomer)was weighed. To those were added 5 ml of water and the mixture was stirred for 18 hours. After completion of the stirring, supernatant was filtered through a membrane filter (0.45 μm), and the filtrate was analyzed by HPLC. The conditions of HPLC analysis were as follows.

P388 leukemia cells = experiment: Antitumor test in mice implanted with P388 leukemia cells: survival days; format: in vivo, mouse; details: for Median of Survival Days: P388 i.p. in CDF1 male mice, control 7 days; for Median of Survival Days / % T/C: 20 mg/kg i.p., 5 consecutive days; for % T/C: median survival days treated × 100 / median of control
Description: ^a) Median of survival days of each treated group (day) ×
100/Median of survival days of control group (day)

[2] = cited from earlier work; for Solubility in water: background statement
[3] = Change in body weight of P388 leukemia cell implanted mice; format: in vivo, mouse; details: after i.p. administration
Description: FIG. 1 is a graph illustrating effect of taxoid derivatives on the body weight of P388 leukemia cell implanted mouse.
The mice used were 7 weeks age CDFl mice (male). P388 leukemia cells subcultured in DBA/2 mouse abdominal cavity were injected in the abdominal cavity in an amount of 10^6 cells per mouse. In the case of paclitaxel, samples were dissolved in a solution of ethanol:cremophor=1:1 to a concentration of 6 mg/ml and then diluted 30 times with physiological saline. This was administered intraperitoneally in a dose of 0.1 ml/10 g mouse/time. In the case of taxoid derivatives, samples were dissolved in a solution of ethanol:cremophor=1:1 to a concentration of 60 mg/ml and then diluted 30 times with physiological saline. This was administered intraperitoneally in a dose of 0.1 ml/10 g mouse/time.
The tests were performed by administering the sample for consecutive 5 days starting from the day next to the day when the P388 leukemia cells were injected into the abodominal cavity and observing survival days and change in body weight.

[4] = ratio to paclitaxel (0.4 μg/ml)

Row | SMILES | solubility at 18 h [1] [µg/mL] | Median of Survival Days (P388 leukemia cells) [days] | % T/C (P388 leukemia cells) [%] | Solubility in water relative to paclitaxel [1] [times] | further results
1 | CC(=O)O[C@H]1C(=O)[C@]2(C)[C@@H](OC(=O)COC3O[C@H](CO)[C@H](O)[C@H](O)[C@H]3O)C[C@H]3OC[C@@]3(OC(C)=O)[C@H]2[C@H](OC(=O)c2ccccc2)[C@]2(O)C[C@H](OC(=O)[C@H](O)[C@@H](NC(=O)c3ccccc3)c3ccccc3)C(C)=C1C2(C)C (stereo partly shown) [7-GAG-PT, Galactosyloxyacetyl-7-paclitaxel] | 67.8 (≈ 63.1 µM) |  |  |  | Solubility in water relative to paclitaxel [1, 4]: 169 times
2 | CC(=O)O[C@H]1C(=O)[C@]2(C)[C@@H](OC(=O)COC3O[C@H](CO)[C@@H](O)[C@H](O)[C@@H]3O)C[C@H]3OC[C@@]3(OC(C)=O)[C@H]2[C@H](OC(=O)c2ccccc2)[C@]2(O)C[C@H](OC(=O)[C@H](O)[C@@H](NC(=O)c3ccccc3)c3ccccc3)C(C)=C1C2(C)C (stereo partly shown) [7-MAG-PT, Mannosyloxyacetyl-7-paclitaxel] | 103 (≈ 95.9 µM) |  |  |  | Solubility in water relative to paclitaxel [1, 4]: 257 times
3 | CC(=O)O[C@@]12CO[C@@H]1C[C@H](O)[C@@]1(C)C(=O)[C@H](OC(=O)CO[C@H]3O[C@H](CO)[C@H](O)[C@H](O)[C@H]3O)C3=C(C)[C@@H](OC(=O)[C@H](O)[C@@H](NC(=O)OC(C)(C)C)c4ccccc4)C[C@@](O)([C@@H](OC(=O)c4ccccc4)[C@H]21)C3(C)C [10-GAG-DT (α-anomer), Galactosyloxyacetyl-10-docetaxel] | 482 (≈ 469 µM) | 12 | 171 | 1204 | 
4 | CC(=O)O[C@@]12CO[C@@H]1C[C@H](O)[C@@]1(C)C(=O)[C@H](OC(=O)CO[C@@H]3O[C@H](CO)[C@H](O)[C@H](O)[C@H]3O)C3=C(C)[C@@H](OC(=O)[C@H](O)[C@@H](NC(=O)OC(C)(C)C)c4ccccc4)C[C@@](O)([C@@H](OC(=O)c4ccccc4)[C@H]21)C3(C)C [10-GAG-DT (β-anomer), Galactosyloxyacetyl-10-docetaxel] | 301 (≈ 293 µM) | 12 | 171 | 753 | 
5 | CC(=O)O[C@@]12CO[C@@H]1C[C@H](O)[C@@]1(C)C(=O)[C@H](OC(=O)COC3O[C@H](CO)[C@H](O)[C@H](O)[C@H]3O)C3=C(C)[C@@H](OC(=O)[C@H](O)[C@@H](NC(=O)OC(C)(C)C)c4ccccc4)C[C@@](O)([C@@H](OC(=O)c4ccccc4)[C@H]21)C3(C)C (stereo partly shown) [10-GAG-DT, Galactosyloxyacetyl-10-docetaxel] |  |  |  |  | Antitumor / physiological activity (P388 leukemia cells; P388 leukemia implanted mice): excellent antitumor activity; Survival effect as compared with paclitaxel (P388 leukemia cells; P388 leukemia implanted mice, ratio to paclitaxel): 1.2 times
6 | CC(=O)O[C@@]12CO[C@@H]1C[C@H](O)[C@@]1(C)C(=O)[C@H](OC(=O)CO[C@H]3O[C@H](CO)[C@@H](O)[C@H](O)[C@@H]3O)C3=C(C)[C@@H](OC(=O)[C@H](O)[C@@H](NC(=O)OC(C)(C)C)c4ccccc4)C[C@@](O)([C@@H](OC(=O)c4ccccc4)[C@H]21)C3(C)C [10-MAG-DT (α-anomer), Mannosyloxyacetyl-10-docetaxel] | 1040 (≈ 1010 µM) | 9 | 129 | 2596 | 
7 | CC(=O)O[C@@]12CO[C@@H]1C[C@H](O)[C@@]1(C)C(=O)[C@H](OC(=O)COC3O[C@H](CO)[C@@H](O)[C@H](O)[C@@H]3O)C3=C(C)[C@@H](OC(=O)[C@H](O)[C@@H](NC(=O)OC(C)(C)C)c4ccccc4)C[C@@](O)([C@@H](OC(=O)c4ccccc4)[C@H]21)C3(C)C (stereo partly shown) [10-MAG-DT, Mannosyloxyacetyl-10-docetaxel] |  |  |  |  | Survival effect as compared with paclitaxel (P388 leukemia cells; P388 leukemia implanted mice, versus paclitaxel): substantially equivalent to that of paclitaxel
8 | CC(=O)O[C@@]12CO[C@@H]1C[C@H](O)[C@@]1(C)C(=O)[C@H](O)C3=C(C)[C@@H](OC(=O)[C@H](O)[C@@H](NC(=O)OC(C)(C)C)c4ccccc4)C[C@@](O)([C@@H](OC(=O)c4ccccc4)[C@H]21)C3(C)C [Docetaxel, docetaxel] |  |  |  |  | Solubility in water of docetaxel relative to taxol ([2]; I. Ringel et al., J. Natl. Cancer Inst., 83, 288 (1991)): 35 times; Solubility in water [2]: very low solubility in water
9 | CC(=O)O[C@H]1C(=O)[C@@]2(C)[C@H]([C@H](OC(=O)c3ccccc3)[C@]3(O)C[C@H](OC(=O)[C@H](O)[C@@H](NC(=O)c4ccccc4)c4ccccc4)C(C)=C1C3(C)C)[C@]1(OC(C)=O)CO[C@@H]1C[C@@H]2O [Paclitaxel, paclitaxel] |  | 10 | 143 |  | Solubility in water [2]: very low solubility in water; also recorded: low solubility in water; Change in body weight [3]: abrupt decrease in body weight; also recorded: decreased abruptly
